Assay results taken from PMC4627311, “Marine alkaloid Monanchocidin a overcomes drug resistance by induction of autophagy and lysosomal membrane permeabilization” (Oncotarget, 2015).
Where two headings read alike, the source gives them in different places.

Experiments:
[1] = test system: THP-1; set-up: method as in PMID 20804151; conditions: cited from earlier work
[2] = test system: PC3; experiment: MTT cytotoxicity assay, PC3; type: cell-based; conditions: Homo sapiens, PC-3, PC3, prostate cancer, 72 h
Description: (§1) The human prostate cancer cell lines PC3 (docetaxel resistant, androgen-independent), DU145 (docetaxel sensitive, androgen-independent), LNCaP (docetaxel sensitive, androgen-dependent), human bladder cancer cell lines RT112, RT4, 486p, T24, human embryonic kidney cell line HEK 293T, human embilical vascular endothelium cell line HUVEC, as well as human fibroblast cell lines MRC-5 and MRC-9 were obtained from ATCC (Manassas, VA, USA). The human germ cell tumor cancer cell line NCCIT was obtained from DSMZ (Braunschweig, Germany). TCam-2 and 2102EP cells were kindly provided by Prof. L. Looijenga (Rotterdam, The Netherlands). The cisplatin-resistant sublines NCCIT-R and 2102EP-R have been generated as reported before. Cells were cultured according to the manufacturers instructions (culture conditions are described in the supplementary). Cells were continuously kept in culture for a maximum of 3 months, and were routinely inspected microscopically for stable phenotype and regularly checked for contamination with mycoplasma. Cell line authentication was performed by DSMZ (Braunschweig, Germany) using highly polymorphic short tandem repeat loci.
(§2) The in vitro cytotoxicity of individual substances and drug combinations was evaluated using the MTT (3-(4,5-dimethylthiazol-2-yl)-2,5-diphenyltetrazolium bromide) assay, which was performed as previously described.

[3] = test system: 2102EP; experiment: MTT cytotoxicity assay, 2102EP; type: cell-based, human; conditions: cisplatin-sensitive GCT, 72 h
Description: as §1, §2

[4] = test system: NCCIT-R cells; experiment: Detection of cathepsin B release; type: cell-based, human; conditions: 48 h
Description: (§3) Intact lysosomes were observed as organelles emitting red fluorescence (indicated by arrows). Red fluorescence was quantified using Image J software and is graphically depicted by column bars. B, Cells were treated with MonA for 48 h, and immobilized on glass plates. Samples were permeabilized, blocked, labeled with a primary anti-cathepsin B antibody, followed by a secondary Alexa Fluor 488-conjugated antibody labeling, and analyzed using fluorescent microscopy. […] The microphotographs (A, B) were made at x400 and x100 magnifications. Each bar represents 50 μm.
To assess release of cathepsin B into the extracellular space, NCCIT-R cells were pre-incubated overnight in 6-well plates (2 × 10^5 cells/well), and were then treated with MonA for 48 h. After trypsination, cells were immobilized on glass slides using the cytospin method and dried overnight. Cells were fixed with 2% (w/v) PFA/PBS, washed with PBS and permeabilized with 0.1% (v/v) Triton X-100 solution in 2% (v/v) normal goat serum/PBS for 30 min. […] Then, samples were washed with PBS, covered with DAPI-based ProLong® Gold reagent (Life Technologies) and directly analyzed with AxioScope.A1 (Carl Zeiss) microscope and with the AxioVision40 V4.8 software (Carl Zeiss Imaging Solutions).

[5] = test system: NCCIT-R cells; experiment: Western blotting / PAGE of protein extracts; type: cell-based, human; conditions: for Expression of LC3B-II (marker of autophagy): MonA 0.25 – 2 μM long-term or 20 – 50 μM short-term, reference drugs 48 h
Description: (§4) Figure 3 Effect of MonA on activation of MAPK and protein degradation A, NCCIT-R cells were analyzed after treatment with MonA for 1 h by Western blotting. Cells treated with 50 μM of anisomycin for 1 h (Aniso) were used as a positive control for MAPK activation. […] C, Analysis of NCCIT-R cells treated with 1 μM of MonA for 1 h. […] Two samples of the spot were randomly picked from the area between ~5 kDa and ~1 kDa, followed by trypsination and identification of peptides by tandem mass spectrometry. D, Analysis of NCCIT-R cells treated with 20 μM of MonA for 1-3 h. Cleavage of PARP and caspase-3 were investigated as hallmarks of apoptosis. Cells treated with 10 μM of cisplatin (CP) for 48 h were used for comparison of the effects of a classical cytotoxic agent. E, Analysis of non-malignant HEK 293T cells treated with 0.0625 – 1 μM of MonA for 48 h.
Figure 5 Effect of cytotoxic compounds on NCCIT-R cells A, NCCIT-R cells were treated with docetaxel, anisomycin, or cisplatin for 48 h. The effect on markers of apoptosis (cleavage of PARP and caspase-3) and autophagy (LC3B-II) were analyzed using Western blotting. While all show induction of apoptosis, expression of LC3B-II is not increased after treatment with these substances. B, Microphotographs of NCCIT-R cells treated with cisplatin or MonA for 48 h show morphological changes induced by the substances. The pictures were made at x100 magnification. Each bar represents 50 μm.
(§5) Preparation of protein extracts and Western blotting were performed as described previously with slight modifications. In brief, 1 × 10^6 cells/well were seeded in Petri dishes (ø 6 cm, 5 mL/dish). Cells were harvested, proteins were extracted, subjected to electrophoresis in 10-15% SDS-polyacrylamide gels at 120 V, and transferred from gel to a 0.2 μm pore PVDF membrane. The membrane was blocked and incubated with the primary antibody according to the manufacturer's protocol (for antibodies used, see the supplementary). After washing, the membranes were incubated with the corresponding secondary antibody for 1 h at RT. Signals were detected using the ECL chemiluminescence system (Thermo Scientific, Rockford, IL, USA) according to the manufacturer's protocol.
SDS-polyacrylamide gels were prepared as described above. Dye-free loading buffer was used for the protein samples preparation. Gels were fixed and stained with colloidal Coomassie Blue overnight, destained, and digitalized as previously described.

[6] = test system: RT4; experiment: MTT cytotoxicity assay, RT4; type: cell-based, human; conditions: 72 h
Description: as §1, §2

[7] = test system: RT112; experiment: MTT cytotoxicity assay, RT112; type: cell-based, human; conditions: 72 h
Description: as §1, §2

[8] = test system: MRC-5; experiment: MTT cytotoxicity assay, MRC-5; type: cell-based; conditions: Homo sapiens, MRC5, MRC-5, non-malignant, 72 h
Description: as §1, §2

[9] = test system: 2102EP-R; experiment: MTT cytotoxicity assay, 2102EP-R; type: cell-based, human; conditions: cisplatin-resistant GCT, 72 h
Description: as §1, §2

[10] = test system: MRC-9; experiment: MTT cytotoxicity assay, MRC-9; type: cell-based; conditions: Homo sapiens, MRC9, MRC-9, non-malignant, 72 h
Description: as §1, §2

[11] = test system: NCCIT; experiment: MTT cytotoxicity assay, NCCIT; type: cell-based, human; conditions: cisplatin-sensitive GCT, 72 h
Description: as §1, §2

[12] = test system: HL-60; set-up: method as in PMID 20804151; conditions: cited from earlier work
[13] = test system: LNCaP; experiment: MTT cytotoxicity assay, LNCaP; type: cell-based; conditions: Homo sapiens, prostate cancer, 72 h
Description: as §1, §2

[14] = test system: HEK 293T cells; experiment: Western blotting / PAGE, protein degradation in non-malignant cells; type: cell-based, human; conditions: non-malignant HEK 293T, 0.0625 – 1 μM, 48 h
Description: as §4
Preparation of protein extracts and Western blotting were performed as described previously with slight modifications. In brief, 1 × 10^6 cells/well were seeded in Petri dishes (ø 6 cm, 5 mL/dish). Cells were harvested, proteins were extracted, subjected to electrophoresis in 10-15% SDS-polyacrylamide gels at 120 V, and transferred from gel to a 0.2 μm pore PVDF membrane. […] Signals were detected using the ECL chemiluminescence system (Thermo Scientific, Rockford, IL, USA) according to the manufacturer's protocol. […]

[15] = test system: prostate cancer cells; experiment: Western blotting of LC3B-II in prostate cancer cells; type: cell-based, human; conditions: 48 h
Description: as §5

[16] = test system: T24; experiment: MTT cytotoxicity assay, T24; type: cell-based, human; conditions: 72 h
Description: as §1, §2

[17] = test system: DU145; experiment: MTT cytotoxicity assay, DU145; type: cell-based; conditions: Homo sapiens, DU-145, DU145, prostate cancer, 72 h
Description: as §1, §2

[18] = test system: HEK 293T; experiment: MTT cytotoxicity assay, HEK 293T; type: cell-based; conditions: Homo sapiens, non-malignant, 72 h
Description: as §1, §2

[19] = test system: HUVEC; experiment: MTT cytotoxicity assay, HUVEC; type: cell-based; conditions: Homo sapiens, non-malignant, 72 h
Description: as §1, §2

[20] = test system: HeLa; set-up: method as in PMID 20804151; conditions: cited from earlier work
[21] = test system: NCCIT-R cells; experiment: Acridine orange staining of lysosomes (LMP); type: cell-based, human
Description: as §3
NCCIT-R cells were pre-incubated overnight in 8-chamber glass slides (5 × 10^4 cells/chamber). The medium was changed with medium containing different concentrations of the substances examined, and cells were treated for 60 min. Then cells were washed twice with PBS solution, stained with 0.5 μg/mL of acridine orange/PBS for 15 min at 37°C, covered with DAPI-based ProLong® Gold reagent (Life Technologies, Eugene, OR, USA), and immediately analyzed with AxioScope.A1 (Carl Zeiss) microscope and with the AxioVision40 V4.8 software (Carl Zeiss Imaging Solutions, Göttingen, Germany). Red fluorescence measurements and quantification were performed with Image J software (NIH, Bethesda, USA).

[22] = test system: NCCIT-R; experiment: MTT cytotoxicity assay, NCCIT-R; type: cell-based, human
Description: as §1, §2

[23] = test system: 486p; experiment: MTT cytotoxicity assay, 486p; type: cell-based, human; conditions: bladder cancer, 72 h
Description: as §1, §2

[24] = test system: TCam-2; experiment: MTT cytotoxicity assay, TCam-2; type: cell-based, human; conditions: TCam-2, cisplatin-sensitive GCT, 72 h
Description: as §1, §2

[25] = test system: NCCIT-R cells; experiment: Drug combination MTT assay, Chou-Talalay method (CI)
Description: (§6) F, Effect of MonA in combination with cisplatin on NCCIT-R cells, examined by the MTT assay. Cells were co-treated with different concentrations of the single substances or their combination for 48 h at a constant molar ratio. The combinational index (CI) values were calculated with CompuSyn software. The ratio of the substances is C(MonA) : C(cisplatin) = 1.2 : 10.
(§7) Co-treatment of MonA and the indicated inhibitors for 48 h was performed. The combinational index (CI) values were calculated with the CompuSyn software for the Fa (fraction affected) = 0.5.
(§8) Determination of synergistic or antagonistic drug effects in combination assays was performed using the Chou-Talalay method [20]. Data were generated by MTT assay. The combinational index (CI) was calculated for the constant drugs ratio with the CompuSyn v.1.0. software (ComboSyn, Inc., Paramus, NJ, USA). Synergism is defined as a CI < 1, whereas antagonism is defined by a CI > 1. The MTT assay was used to examine the combination of MonA at the IC50 with defined inhibitors of autophagy or LMP, or with the IC50 of cisplatin. […] All experiments were performed in triplicates and were repeated at least three times.
MonA : z-VAD-fmk 1.2 µM : 100 µM
MonA : calpeptine 1.2 µM : 50 µM
MonA : leupeptine 1.2 µM : 100 µM
(§9) MonA : protease inhibitors cocktail 1.2 µM : 0.02 tablet/ml
(cOmplete Mini EDTA-free)

[26] = test system: NCCIT-R cells
Description: as §6, §7, §8
MonA : z-VAD-fmk 1.2 µM : 100 µM
MonA : calpeptine 1.2 µM : 50 µM
MonA : leupeptine 1.2 µM : 100 µM
as §9
(cOmplete Mini EDTA-free)

Compound: CC/C=C/[C@@H]1CC[C@]2(C[C@H]3CC[C@H]4[C@@H](C(=O)OC(CC)CCCCCCCCCCCCC[C@@H]5O[C@](O)(CCN)[C@H](O)N(CCCN)C5=O)[C@@]5(CCC[C@H](C)O5)NC(=[N+]34)N2)O1 (stereo partly drawn) [MonA, Monanchocidin A]
- Cytotoxic activity [1]: micro- and nanomolar concentrations
- IC50 [2]: 420 nM
- IC50 ([3]; Homo sapiens): 341 nM
- Concentration at which release of cathepsin B into the extracellular space occurred [4]: ≥ 2 µM
- Activation of MAPK (p38, ERK, JNK) ([5]; 50 μM, 1 h, Western blotting): Activation of p38 and ERK, but not JNK
- Expression of LC3B-II (marker of autophagy) ([5]; Western blotting): up-regulation of LC3B-II
- Protein degradation ([5]; short term 30 μM - 50 μM or long-term 0.5 μM - 2 μM): Degradation of different proteins was observed
- IC50 ([6]; Homo sapiens, RT-4, RT4, bladder cancer): 580 nM
- IC50 ([7]; Homo sapiens, RT-112, RT112, bladder cancer): 263 nM
- IC50 [8]: 756 nM
- IC50 ([9]; Homo sapiens): 306 nM
- IC50 [10]: 708 nM
- IC50 ([11]; Homo sapiens): 210 nM
- Cytotoxic activity [12]: micro- and nanomolar concentrations
- IC50 [13]: 265 nM
- Protein degradation [14]: did not reveal any signs of protein degradation
- Expression of LC3B-II (marker of autophagy) [15]: up-regulation of LC3B-II
- IC50 ([16]; Homo sapiens, T-24, T24, bladder cancer): 413 nM
- IC50 [17]: 482 nM
- IC50 [18]: 670 nM
- IC50 [19]: 838 nM
- Cytotoxic activity [20]: micro- and nanomolar concentrations
- Lysosomal membrane permeabilization (acridine orange fluorescence) [21]: disappearance of red fluorescence coupled with increased green fluorescence
- IC50 ([22]; Homo sapiens, 48 h of treatment): 500 to 1000 nM
- IC50 ([22]; Homo sapiens, cisplatin-resistant GCT, 72 h, MTT): 253 nM
- IC50 ([23]; Homo sapiens): 273 nM
- IC50 ([24]; Homo sapiens): 440 nM
- Effect of MonA in combination with cisplatin (combinational index) ([25]; 48 h co-treatment, C(MonA) : C(cisplatin) = 1.2 : 10): strong synergistic effects

Compound: z-VAD(OMe)-fmk [z-VAD-fmk]
- Effect of inhibitor on cytotoxicity of MonA (combinational index) [26]: moderate antagonistic effect

Compound: COc1ccc(C[C@H]2NC[C@H](O)[C@H]2OC(C)=O)cc1 [anisomycin, Anisomycin]
- Markers of apoptosis (cleavage of PARP and caspase-3) ([5]; Western blotting): increase of markers of apoptosis
- Expression of LC3B-II (marker of autophagy) ([5]; Western blotting): None of the drugs revealed an up-regulation of LC3B-II

Compound: Cn1cnc(N)c2ncnc1-2 [3-MA, 3-methyladenine, reference compound]
- Effect of inhibitor on cytotoxicity of MonA (combinational index) ([25]; 48 h, MTT, CI at Fa = 0.5, ratios in Table S3): most pronounced antagonistic effect

Compound: N.N.[Cl][Pt][Cl] [Cisplatin, cis-diamminedichloroplatinum (II), reference compound]
- IC50 [3]: 644 nM
- Markers of apoptosis (cleavage of PARP and caspase-3) ([5]; Western blotting): increase of markers of apoptosis
- Expression of LC3B-II (marker of autophagy) ([5]; Western blotting): None of the drugs revealed an up-regulation of LC3B-II
- IC50 ([6]; RT4, bladder cancer): 11900 nM
- IC50 ([7]; RT112, bladder cancer): 8990 nM
- IC50 [9]: 4930 nM
- IC50 [11]: 1560 nM
- IC50 ([16]; T24, bladder cancer): 9070 nM
- IC50 ([22]; cisplatin-resistant GCT, 72 h, MTT): 8930 nM
- IC50 [23]: 20800 nM
- IC50 [24]: 2480 nM

Compound: CC(=O)O[C@@]12CO[C@@H]1C[C@H](O)[C@@]1(C)C(=O)[C@H](O)C3=C(C)[C@@H](OC(=O)[C@H](O)[C@@H](NC(=O)OC(C)(C)C)c4ccccc4)C[C@@](O)([C@@H](OC(=O)c4ccccc4)[C@H]21)C3(C)C [docetaxel]
- Markers of apoptosis (cleavage of PARP and caspase-3) ([5]; Western blotting): increase of markers of apoptosis
- Expression of LC3B-II (marker of autophagy) ([5]; Western blotting): None of the drugs revealed an up-regulation of LC3B-II
